{
  "source": "patent US20230346826A1",
  "about": "“COMPOSITIONS AND METHODS FOR TREATING AND/OR PREVENTING AUTOIMMUNE DISORDERS” (The Regents of the University of Michigan, priority 2020, published 2023)",
  "key": {"[1]": {"test_system": "C57BL/6 mice given 3% DSS (acute colitis)", "test": "DSS-induced acute colitis model", "assay_type": "in vivo", "details": "3% DSS for 6 days, oral gavage", "text": "We examined whether oral administration of inulin gel loaded with an immune tolerizing drug can exert therapeutic efficacy against colitis. Mice were given 3% DSS in drinking water for 6 days to induce acute colitis. Starting day 0, mice were also orally gavaged with either PBS, an Ahr ligand, indole-3-aldehyde (IALD), or inulin gel formulated with IALD (inulin gel + IALD) (FIG. 5A).\nMethod: Six-week-old female C57BL/6 mice were acclimatized for 2 weeks before the start of the study. To induce colitis, mice were given 3% DSS (40 kDa; Alfa Aesar) supplemented in the drinking water for 6 days, followed by giving normal water. Inulin gel + IALD, IALD or PBS was orally gavaged into mice on predetermined days. The inulin gel + IALD was prepared by dissolving 300 mg of inulin from chicory (Sigma-Aldrich) in 0.9 ml deionized water and 0.1 ml IALD solution (50 mg/mL, DMSO). The inulin solution was thoroughly mixed with IALD solution by vortex and was heated to 70° C. for 5 min. The formulation was kept at room temperature for 12 h for gelation. The IALD was prepared similarly without adding the inulin. Bodyweight were measured daily over the experimental period. On day 9, mice were sacrificed, and the entire colon was excised. Colon length and the cecum weight was measured."}, "[2]": {"test_system": "BABL/c mice sensitized with OVA/Alum (OVA allergy)", "assay_type": "in vivo", "details": "after the 3rd OVA challenge; escalated dose OIT", "procedure": "To simulate the widely used therapeutic plan in clinic, we next provided the escalated dose of OVA in OIT treatment (FIG. 2a).\nPreparation and characterization of inulin gel, PE or OVA loaded inulin gel. For OVA-related study, 495 mg of inulin from chicory (Sigma-Aldrich) was dissolved in 1.35 mL PBS and heated for 5 min. OVA (Sigma-Aldrich) was added right after cool-down of inulin. For PE-related study, 300 mg of inulin from chicory (Sigma-Aldrich) was dissolved in 0.9 mL deionized water, after heating for 5 min, 8 mg of PE was added right after cool-down. Samples were kept at 4° C. for 24 h. […] The content of protein in peanut extraction (around 20%) was determined by BCA assay.\nIn vivo oral sensitization, immunotherapy, and challenge. […] Body weight before all times of i.g. challenge were recorded, while the body temperature in the last time of i.g. challenge was measured. […] On day 73, mice were i.p. injected with 125 µg PE and the body temperature was recorded at preset times via rectal temperature probe.\nAssessment of hypersensitivity reactions and diarrhea. Anaphylactic symptoms were evaluated between 30 to 50 minutes after i.p. challenge of PE (125 µg/dose) or i.g. challenge of OVA (50 mg/dose). […] For OVA study, mice with profuse liquid stool up to 1 h after i.g. challenge were recorded as diarrhea-positive animals. […]\nIntestinal mast cell quantification. […]"}},
  "data": [
    {"molecule": "O=Cc1c[nH]c2ccccc12", "note": "[IALD, indole-3-aldehyde]", "values": [
      {"measurement": "bodyweight loss", "setting": "[1]; daily bodyweight for 9 d", "result": "significant bodyweight loss"},
      {"measurement": "shortening of the colon length", "setting": "[1]; day 9", "result": "shortening of the colon length"}
    ]},
    {"molecule": "OVA: albumin (OVA) protein, unformulated allergen given orally as OIT comparator (protein, UniProt P01012 2-386, looked up) Ovalbumin: GSIGAASMEFCFDVFKELKVHHANENIFYCPIAIMSALAMVYLGAKDSTRTQINKVVRFDKLPGFGDSIEAQCGTSVNVHSSLRDILNQITKPNDVYSFSLASRLYAEERYPILPEYLQCVKELYRGGLEPINFQTAADQARELINSWVESQTNGIIRNVLQPSSVDSQTAMVLVNAIVFKGLWEKAFKDEDTQAMPFRVTEQESKPVQMMYQIGLFRVASMASEKMKILELPFASGTMSMLVLLPDEVSGLEQLESIINFEKLTEWTSSNVMEERKIKVYLPRMKMEEKYNLTSVLMAMGITDVFSSSANLSGISSAESLKISQAVHAAHAEINEAGREVVGSAEAGVDAASVSEEFRADHPFLFCIKHIATNAVLFFGRCVSP", "values": [
      {"measurement": "death after OVA challenge", "setting": "[2]", "result": "Some mice in the OVA group died"}
    ]}
  ]
}
